Assay [1] addresses T1, full-length beta-Catenin (Uniprot ID P35222) (Homo sapiens, UniProt P35222).
T1 construct: 10 nM full-length beta-Catenin (Uniprot ID P35222)
T1 sequence (P35222 1-781): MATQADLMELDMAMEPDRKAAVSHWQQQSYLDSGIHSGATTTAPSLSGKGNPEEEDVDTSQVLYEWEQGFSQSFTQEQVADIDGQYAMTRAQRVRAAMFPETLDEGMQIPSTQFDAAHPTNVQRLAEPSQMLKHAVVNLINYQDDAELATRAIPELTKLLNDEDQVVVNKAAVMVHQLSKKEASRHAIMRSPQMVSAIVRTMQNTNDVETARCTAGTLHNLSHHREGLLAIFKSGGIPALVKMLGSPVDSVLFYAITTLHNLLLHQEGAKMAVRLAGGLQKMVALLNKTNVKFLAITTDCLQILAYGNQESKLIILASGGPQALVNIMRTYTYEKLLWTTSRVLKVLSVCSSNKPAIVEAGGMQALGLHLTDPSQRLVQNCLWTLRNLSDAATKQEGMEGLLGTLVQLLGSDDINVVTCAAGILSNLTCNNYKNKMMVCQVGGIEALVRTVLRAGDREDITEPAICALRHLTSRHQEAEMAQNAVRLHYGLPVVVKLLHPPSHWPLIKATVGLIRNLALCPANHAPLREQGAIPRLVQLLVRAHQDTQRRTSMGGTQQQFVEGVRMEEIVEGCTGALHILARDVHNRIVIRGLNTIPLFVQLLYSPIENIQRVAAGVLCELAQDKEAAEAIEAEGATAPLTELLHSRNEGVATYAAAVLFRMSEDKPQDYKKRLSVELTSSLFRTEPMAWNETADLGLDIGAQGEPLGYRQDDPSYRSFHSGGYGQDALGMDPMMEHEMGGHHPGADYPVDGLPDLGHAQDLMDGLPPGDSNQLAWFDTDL
As to the kind of experiment: Fluorescence polarization IC50 (beta-catenin / 5FAM-TCF4 10-53 competition). Format: binding. The settings on record: fluorescence polarization; read-out: beta-Catenin FP IC50.

In assay [2] the target is T2, beta-catenin/TCF4 engagement (Homo sapiens, UniProt P35222).
T2 construct: expressed in transfected cells; host or cells: HEK293
T2 sequence (P35222 1-781): T1 sequence (P35222 1-781)
As to the kind of experiment: Nano-BRET target engagement assay (B-cat-Halo & TCF4-Luc in HEK293 cells). Format: cell-based. The note with it: absolute IC50; read-out: NanoBRET Abs IC50.

Where only a bound is given, the exact number is not on record here.

As for `CC(=O)N1CCC[C@]12CC=CCCCC1(CCCC=CCCCOC(=O)N3CC[C@@](C(=O)N[C@@H](Cc4ccsc4)C(=O)N[C@@H](Cc4csc5ccccc45)C(=O)N[C@H](CCC(N)=O)C(N)=O)(C3)NC(=O)[C@H](CC(C)C)NC(=O)[C@H](Cc3ccccc3)NC(=O)[C@H](C)NC(=O)[C@H](C)NC(=O)[C@H](CC(=O)O)NC(=O)[C@H](CC(=O)O)NC1=O)NC(=O)[C@H](CC(C)(C)C)NC(=O)[C@H](CC(=O)O)NC2=O` (stereo partly drawn) [I-1500, Ac-PL3-Asp-Npg-B5-Asp-Asp-Ala-Ala-Phe-Leu-PyrS2-3Thi-BztA-dGln-NH2], the 50% inhibitory concentration (IC50) in assay [1] stood at 0.022 µM; in assay [2], 4.7 µM.

With `CC(=O)N1CCC[C@]12CC=CCCCC1(CCCC=CCCCOC(=O)N3CC[C@@](C(=O)N[C@@H](Cc4ccsc4)C(=O)N[C@@H](Cc4csc5ccccc45)C(=O)N[C@@H](CCC(N)=O)C(N)=O)(C3)NC(=O)[C@H](CC(C)C)NC(=O)[C@H](Cc3ccccc3)NC(=O)[C@H](CCCN3CCOCC3)NC(=O)[C@H](C)NC(=O)[C@H](CC(=O)O)NC(=O)[C@H](CC(=O)O)NC1=O)NC(=O)[C@H](CC(C)(C)C)NC(=O)[C@H](CC(=O)O)NC2=O` (stereo partly drawn) [I-1501, Ac-PL3-Asp-Npg-B5-Asp-Asp-Ala-MorphNva-Phe-Leu-PyrS2-3Thi-BztA-Gln-NH2], the IC50 in assay [1] is 0.046 µM; in assay [2], more than 20 µM.

`CC(=O)N1CCC[C@]12CC=CCCCC1(CCCC=CCCCOC(=O)N3CC[C@@](C(=O)N[C@@H](Cc4ccsc4)C(=O)N[C@@H](Cc4csc5ccccc45)C(=O)N[C@@H](CCC(N)=O)C(N)=O)(C3)NC(=O)[C@H](CC(C)C)NC(=O)[C@H](Cc3ccccc3)NC(=O)[C@H](CCCN3CCC(F)(F)CC3)NC(=O)[C@H](C)NC(=O)[C@H](CC(=O)O)NC(=O)[C@H](CC(=O)O)NC1=O)NC(=O)[C@H](CC(C)(C)C)NC(=O)[C@H](CC(=O)O)NC2=O` (stereo partly drawn) [I-1502, Ac-PL3-Asp-Npg-B5-Asp-Asp-Ala-F2PipNva-Phe-Leu-PyrS2-3Thi-BztA-Gln-NH2]: the 50% inhibitory concentration (IC50) is 0.034 µM in assay [1] and more than 20 µM in assay [2].

`CC(=O)N1CCC[C@]12CC=CCCCC1(CCCC=CCCCOC(=O)N3CC[C@@](C(=O)N[C@@H](Cc4ccsc4)C(=O)N[C@@H](Cc4csc5ccccc45)C(=O)N[C@@H](CCC(N)=O)C(N)=O)(C3)NC(=O)[C@H](CC(C)C)NC(=O)[C@H](Cc3ccccc3)NC(=O)[C@H](CCN3CCOCC3)NC(=O)[C@H](C)NC(=O)[C@H](CC(=O)O)NC(=O)[C@H](CC(=O)O)NC1=O)NC(=O)[C@H](CC(C)(C)C)NC(=O)[C@H](CC(=O)O)NC2=O` (stereo partly drawn) [I-1504, Ac-PL3-Asp-Npg-B5-Asp-Asp-Ala-MorphAbu-Phe-Leu-PyrS2-3Thi-BztA-Gln-NH2]: the results for the half-maximal inhibitory concentration (IC50) in assay [1] and in assay [2] were 0.046 µM and more than 20 µM, respectively.

For the compound `CC(=O)N1CCC[C@]12CC=CCCCC1(CCCC=CCCCOC(=O)N3CC[C@@](C(=O)N[C@@H](Cc4ccsc4)C(=O)N[C@@H](Cc4csc5ccccc45)C(=O)N[C@@H](CCC(N)=O)C(N)=O)(C3)NC(=O)[C@H](CC(C)C)NC(=O)[C@H](Cc3ccccc3)NC(=O)[C@H](CCN3CCC(F)(F)CC3)NC(=O)[C@H](C)NC(=O)[C@H](CC(=O)O)NC(=O)[C@H](CC(=O)O)NC1=O)NC(=O)[C@H](CC(C)(C)C)NC(=O)[C@H](CC(=O)O)NC2=O` (stereo partly drawn) [I-1505, Ac-PL3-Asp-Npg-B5-Asp-Asp-Ala-F2PipAbu-Phe-Leu-PyrS2-3Thi-BztA-Gln-NH2], the IC50 in assay [1] was 0.039 µM; in assay [2], more than 20 µM.

Turning to `CC(=O)N1CCC[C@]12CC=CCCCC1(CCCC=CCCCOC(=O)N3CC[C@@](C(=O)N[C@@H](Cc4ccsc4)C(=O)N[C@@H](Cc4csc5ccccc45)C(=O)N[C@@H](CCC(N)=O)C(N)=O)(C3)NC(=O)[C@H](CC(C)C)NC(=O)[C@H](Cc3ccccc3)NC(=O)[C@H](CC(=O)N3CCOCC3)NC(=O)[C@H](C)NC(=O)[C@H](CC(=O)O)NC(=O)[C@H](CC(=O)O)NC1=O)NC(=O)[C@H](CC(C)(C)C)NC(=O)[C@H](CC(=O)O)NC2=O` (stereo partly drawn) [I-1507, Ac-PL3-Asp-Npg-B5-Asp-Asp-Ala-MorphAsn-Phe-Leu-PyrS2-3Thi-BztA-Gln-NH2], the IC50 in assay [1] is 0.03 µM; in assay [2], more than 20 µM.

As to `CC(=O)N1CCC[C@]12CC=CCCCC1(CCCC=CCCCOC(=O)N3CC[C@@](C(=O)N[C@@H](Cc4ccsc4)C(=O)N[C@@H](Cc4csc5ccccc45)C(=O)N[C@@H](CCO)C(N)=O)(C3)NC(=O)[C@H](CC(C)C)NC(=O)[C@H](Cc3ccccc3)NC(=O)[C@H](C)NC(=O)[C@H](C)NC(=O)[C@H](CC(=O)O)NC(=O)[C@H](CC(=O)O)NC1=O)NC(=O)[C@H](Cc1ccccc1)NC(=O)[C@H](CC(=O)O)NC2=O` (stereo partly drawn) [I-1510, Ac-PL3-Asp-Phe-B5-Asp-Asp-Ala-Ala-Phe-Leu-PyrS2-3Thi-BztA-Hse-NH2], the IC50 in assay [1] was found to be 0.01 µM; in assay [2], 31.8 µM.

On to `CC(=O)N1CCC[C@]12CC=CCCCC1(CCCC=CCCCOC(=O)N3CC[C@@](C(=O)N[C@@H](Cc4ccsc4)C(=O)N[C@@H](Cc4csc5ccccc45)C(=O)N[C@@H](CCC(N)=O)C(N)=O)(C3)NC(=O)[C@H](CC(C)C)NC(=O)[C@H](Cc3ccccc3)NC(=O)[C@H](C)NC(=O)[C@H](C)NC(=O)[C@H](CC(=O)O)NC(=O)[C@H](CC(=O)O)NC1=O)NC(=O)[C@H](Cc1ccc(O)cc1)NC(=O)[C@H](CC(=O)O)NC2=O` (stereo partly drawn) [I-1511, Ac-PL3-Asp-Tyr-B5-Asp-Asp-Ala-Ala-Phe-Leu-PyrS2-3Thi-BztA-Gln-NH2], for which the IC50 is 0.005 µM in assay [1] and more than 20 µM in assay [2].

Consider `CC(=O)N1CCC[C@]12CC=CCCCC1(CCCC=CCCCOC(=O)N3CC[C@@](C(=O)N[C@@H](Cc4ccsc4)C(=O)N[C@@H](Cc4csc5ccccc45)C(=O)N[C@@H](CCO)C(N)=O)(C3)NC(=O)[C@H](CC(C)C)NC(=O)[C@H](Cc3ccccc3)NC(=O)[C@H](C)NC(=O)[C@H](C)NC(=O)[C@H](CC(=O)O)NC(=O)[C@H](CC(=O)O)NC1=O)NC(=O)[C@H](Cc1ccc(O)cc1)NC(=O)[C@H](CC(=O)O)NC2=O` (stereo partly drawn) [I-1512, Ac-PL3-Asp-Tyr-B5-Asp-Asp-Ala-Ala-Phe-Leu-PyrS2-3Thi-BztA-Hse-NH2], for which the concentration for half-maximal inhibition (IC50) in assay [1] was 0.012 µM; in assay [2], more than 20 µM.

With `CC(=O)N1CCC[C@]12CC=CCCCC1(CCCC=CCCCOC(=O)N3CC[C@@](C(=O)N[C@@H](Cc4ccsc4)C(=O)N[C@@H](Cc4csc5ccccc45)C(=O)N[C@@H](CCC(N)=O)C(N)=O)(C3)NC(=O)[C@H](CC(C)C)NC(=O)[C@H](Cc3ccccc3)NC(=O)[C@H](C)NC(=O)[C@H](C)NC(=O)[C@H](CC(=O)O)NC(=O)[C@H](CC(=O)O)NC1=O)NC(=O)[C@H](CO)NC(=O)[C@H](CC(=O)O)NC2=O` (stereo partly drawn) [I-1513, Ac-PL3-Asp-Ser-B5-Asp-Asp-Ala-Ala-Phe-Leu-PyrS2-3Thi-BztA-Gln-NH2], the IC50 in assay [1] was 0.021 µM; in assay [2], more than 20 µM.

With `CC(=O)N1CCC[C@]12CC=CCCCC1(CCCC=CCCCOC(=O)N3CC[C@@](C(=O)N[C@@H](Cc4ccsc4)C(=O)N[C@@H](Cc4csc5ccccc45)C(=O)N[C@@H](CCC(N)=O)C(N)=O)(C3)NC(=O)[C@H](CC(C)C)NC(=O)[C@H](Cc3ccccc3)NC(=O)[C@H](C)NC(=O)[C@H](C)NC(=O)[C@H](CC(=O)O)NC(=O)[C@H](CC(=O)O)NC1=O)NC(=O)[C@H]([C@@H](C)O)NC(=O)[C@H](CC(=O)O)NC2=O` (stereo partly drawn) [I-1515, Ac-PL3-Asp-Thr-B5-Asp-Asp-Ala-Ala-Phe-Leu-PyrS2-3Thi-BztA-Gln-NH2], the half-maximal inhibitory concentration (IC50) in assay [1] is 0.024 µM; in assay [2], more than 20 µM.
